# Results taken from patent US20030215788A1, “Cysteine thiol-protected peptides for use in immunoassays” (priority 1989, published 2003).
# “Also recorded” adds a separate entry of the source. Where two headings read alike, the source gives them in different places.
# Tested on: Antibodies to HIV-1
# Assay type: binding, human
# Procedure: Alternative methods of testing immunologic cross-reactivity were also used. In one such method L5 Peptides 39 and 39GC were tested by ELISA as previously described in U.S. Pat. No. 4,629,783. Briefly, stock solutions of peptides 39 and 39-GC were prepared in 6M Gu-HCl. Working dilutions of 20 µg/ml and 6 μg/ml respectively were prepared by dilution of stock solution 0 with 0.05M carbonate/bicarbonate buffer, pH 9.5. Wells of microtiter plates were filled with 100 μl of the working dilution of the peptides and allowed to stand overnight at room temperature. Coating solution was removed and 300 μl of blocking solution supra containing 0.5M ethanolamine was added for 1 hr. at room temperature. Blocking solution was removed and the plates were used immediately or allowed to dry and stored for later use.
# Plasma samples were diluted (See Table 1) in sample dilution buffer (above) and 100 μl was added to individual wells. Samples were incubated for 30 min. at 37° C., then removed and the wells were washed six times with 0.15M NaCl, 0.05% Tween 20. One hundred microliters of goat antihuman Ig-horseradish peroxidase conjugate diluted in citrate buffer, pH 7.0, 1% normal goat serum was added to each well for 30 min at 37° C. prior to washing six times as above. The ELISA assay was developed by adding 100 μl/well of substrate solution (80 μg/ml tetramethyl benzidine, 0.0015% hydrogen peroxide in citrate/phosphate buffer, pH 6.0) for 30 min. at room temperature. Reactions were stopped with the addition of 100 μl of H2SO4 per well, and the ratio of the optical density at 450 nm to 630 nm was determined by an automated ELISA reader. The cutoff value for a positive result was set at 0.225 Absorbance Units above the average absorbance obtained for three known negative samples.
substance,measurement,setting,value
Cys-Gly-Gly-Arg-Ile-Leu-Ala-Val-Glu-Arg-Tyr-Leu-Lys-Asp-Gln-Gln-Leu-Leu-Gly-Ile-Trp-Gly-Cys*-Ser-Gly-Lys-Leu-Ile-Cys*-NH2 [Peptide 39GC],Diagnosis by ELISA,PlasmaG (1:40),Pos/Pos
same,ELISA optical density (450 nm/630 nm),PlasmaG (1:40),0.895
same,Diagnosis by ELISA,PlasmaG (1:80),Pos
same,ELISA optical density (450 nm/630 nm),PlasmaG (1:80),0.820
same,Diagnosis by ELISA,PlasmaG (1:160),Pos
same,ELISA optical density (450 nm/630 nm),PlasmaG (1:160),0.575
same,Diagnosis by ELISA,PlasmaG (1:320),Neg/Neg
same,ELISA optical density (450 nm/630 nm),PlasmaG (1:320),0.349
same,Diagnosis by ELISA,PlasmaG (1:640),Neg/Neg
same,ELISA optical density (450 nm/630 nm),PlasmaG (1:640),0.179
same,Diagnosis by ELISA,PlasmaG (1:1280),Neg/Neg
same,ELISA optical density (450 nm/630 nm),PlasmaG (1:1280),0.107
same,Diagnosis by ELISA,PlasmaO (1:40),Pos/Pos
same,ELISA optical density (450 nm/630 nm),PlasmaO (1:40),1.439
same,Diagnosis by ELISA,PlasmaO (1:80),Pos/Pos
same,ELISA optical density (450 nm/630 nm),PlasmaO (1:80),1.010
same,Diagnosis by ELISA,PlasmaO (1:160),Pos/Pos
same,ELISA optical density (450 nm/630 nm),PlasmaO (1:160),0.742
same,Diagnosis by ELISA,PlasmaO (1:320),Pos
same,ELISA optical density (450 nm/630 nm),PlasmaO (1:320),0.397
same,Diagnosis by ELISA,PlasmaO (1:640),Neg/Neg
same,ELISA optical density (450 nm/630 nm),PlasmaO (1:640),0.279
same,Diagnosis by ELISA,PlasmaO (1:1280),Neg/Neg
same,ELISA optical density (450 nm/630 nm),PlasmaO (1:1280),0.165
same,"dilution giving a positive result, compared with Peptide 39","plasma dilution panel, Table 1",positive result at a higher dilution than Peptide 39
same,ELISA optical density,seroconversion panel sample BBI-1,0.347
same,ELISA optical density,seroconversion panel sample BBI-2,0.317
same,ELISA optical density,seroconversion panel sample BBI-3,0.842
same,ELISA optical density,seroconversion panel sample BBI-4,1.105
same,ELISA optical density,seroconversion panel sample BBI-5,1.757
same,ELISA optical density,seroconversion panel sample BBI-6,2.160
same,ELISA optical density,seroconversion panel sample BBI-7,1.986
same,ELISA optical density,seroconversion panel sample BBI-8,2.317
same,ELISA optical density,seroconversion panel sample BBI-9,2.328
same,ELISA optical density,seroconversion panel sample BBI-20,0.136
same,ELISA optical density,seroconversion panel sample BBI-21,0.158
same,ELISA optical density,seroconversion panel sample BBI-22,0.450
same,ELISA optical density,seroconversion panel sample BBI-23,0.890
same,ELISA optical density,seroconversion panel sample BBI-24,1.064
same,ELISA optical density,seroconversion panel sample BBI-25,0.845
same,ELISA optical density,seroconversion panel sample BBI-26,0.852
same,ELISA optical density,seroconversion panel sample BBI-27,1.104
same,ELISA optical density,seroconversion panel sample BBI-28,1.177
same,ELISA optical density,seroconversion panel sample BBI-29,2.085
same,ELISA optical density,seroconversion panel sample BBI-30,2.214
same,ELISA optical density,seroconversion panel sample BBI-31,2.207
same,ELISA optical density,seroconversion panel sample BBI-32,2.263
same,ELISA optical density,seroconversion panel sample BBI-33,2.277
same,ELISA optical density,seroconversion panel sample BBI-34,1.622
same,ELISA optical density,seroconversion panel sample BBI-35,2.198
same,ELISA optical density,seroconversion panel sample BBI-36,2.265
same,ELISA optical density,seroconversion panel sample BBI-37,2.105
same,time of first positive result on seroconversion panels,"two seroconversion panels, Table 4",positive result earlier than whole virus ELISA; also recorded: positive result earlier than peptide 39 on one of the seroconversion panels
